{
  "source": "patent US5443986A",
  "about": "“Enzymatic analysis using substrates that yield fluorescent precipitates” (Molecular Probes, Inc., priority 1993, dated 1995)",
  "key": {"alkaline phosphatase": {"biological_target": "alkaline phosphatase (Bos taurus, UniProt P19111)", "sequence (P19111 20-506 limits assumed)": "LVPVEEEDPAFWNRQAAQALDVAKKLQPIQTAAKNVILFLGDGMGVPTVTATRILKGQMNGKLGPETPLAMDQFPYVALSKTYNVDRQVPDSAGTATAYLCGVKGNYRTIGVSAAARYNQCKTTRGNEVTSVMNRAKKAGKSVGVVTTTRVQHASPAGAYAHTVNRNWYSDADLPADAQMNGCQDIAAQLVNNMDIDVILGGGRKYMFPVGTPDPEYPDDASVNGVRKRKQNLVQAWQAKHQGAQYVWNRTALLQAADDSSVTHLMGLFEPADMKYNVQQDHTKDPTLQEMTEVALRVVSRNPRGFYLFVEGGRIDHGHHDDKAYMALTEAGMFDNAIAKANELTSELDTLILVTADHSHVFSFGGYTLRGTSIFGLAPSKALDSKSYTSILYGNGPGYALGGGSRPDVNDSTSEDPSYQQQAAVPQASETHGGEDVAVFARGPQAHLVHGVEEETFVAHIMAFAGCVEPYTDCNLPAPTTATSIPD", "experiment": "Detection of enzyme on non-denaturing gels after electrophoresis", "assay_type": "biochemical", "experimental": "1 ). Detecting enzymes on native gels using precipitating substrates. Gel electrophoresis is a common method for identifying proteins in fluids and tissue homogenates. In native gel electrophoresis, the proteins retain their activity during the process of separation and thus can hypothetically be identified by activity assays. By incubating the native gel with various precipitating substrates specific for the analyte enzyme, one can identify whether the enzyme is present in the loaded sample. These methods are used for investigating the expression of both endogenous enzymes and enzyme-fusion proteins and for the detection of the enzyme in samples suspected of containing the enzyme. A protocol commonly used in these experiments is as follows:\n1. The enzyme-containing sample is mixed with the sample buffer (0.075M TRIS-HCl in 50% glycerol, pH 6.8) to a concentration that is appropriate for loading the enzyme. The sample is loaded onto a 4-20% gradient acrylamide gel. The gel is run at 30 mA for approximately 30 minutes.\n2. The gel is incubated in a buffer that is optimal for the enzyme being detected and that contains 1 mM of the substrate. For alkaline phosphatase the buffer used is 100 mM MOPS, 50 mM NaCl, 1 mM MgCl2, 0.1 mM ZnCl2, pH 7.5. The appearance of fluorescent bands is monitored using a hand-held ultraviolet lamp.\n2). Comparing the sensitivity of enzyme detection using precipitating substrates versus standard Coomassie Blue detection. Decreasing amounts of alkaline phosphatase are loaded into the lanes of two gels. The amount of alkaline phosphatase loaded into each lane varies from […]. After electrophoresis, one gel is developed for visualization using standard Coomassie Blue-staining procedures; the other by incubation with 1 mM 8e as described above. The minimum detectable quantity of alkaline phosphatase using standard Coomassie Blue-staining methods is 1 μg. After incubation with 8e for 30 minutes, 1 ng of alkaline phosphatase is clearly visible using a handheld UV-lamp. After approximately 20 hours incubation, 0.25 ng of alkaline phosphatase can be visibly detected without any signal enhancement. These experiments indicate that incubation with the precipitating substrate provides a method for enzyme detection that is 4000 times more sensitive than standard Coomassie Blue-staining methods. […] Multiple proteins or extracts can be run in a single lane with only the enzyme specific for the synthetic substrate being detected by the staining."}, "HEp-2 cells": {"test_system": "HEp-2 cells", "experiment": "Enzyme-mediated immunohistochemical detection (SLE kit) on fixed HEp-2 cells", "assay_type": "cell-based, human", "conditions": "30 minute incubation, 100 mM MOPS pH 7.5, biotinylated alkaline phosphatase", "experimental": "1 ). Cells and Detection Kit. […] The kit includes slides containing wells of fixed HEp-2 cells (human epithelial cells) and a positive control consisting of anti-DNA antibodies isolated from humans with the disease. Normally, the slides are incubated with sera from patients and then probed with fluorescein-conjugated anti-human antibodies. Using this method, the nuclei of those cells that have been incubated with SLE-positive sera appear to have typical morphology that is identified by their green fluorescence using standard fluorescence microscopy whereas the negative controls have no fluorescence.\n2). Sample Preparation. A four-step incubation protocol is used to prepare the slides. All reagents are diluted in 1% bovine serum albumin (BSA) in TRIS-buffered saline, pH 7.5 (TBS; 100 mM NaCl, 100 mM TRIS). Each incubation is 1/2 hour. Slides are washed three times with TBS between incubations. A typical procedure consists of the following steps:\n1. The wells are incubated with either SLE-positive or -negative human sera (provided in the kit).\n2. The wells are incubated with biotinylated goat anti-human ([…]).\n3. The wells are incubated with streptavidin (50 μg/mL), a reagent that has four binding sites for biotin. Excess binding sites are available for binding the next reagent.\n4. The wells are incubated with a biotinylated enzyme that will remove BLOCK from the subject substrates. […]"}},
  "data": [
    {"smiles": "O=c1[nH]c(-c2cc(Cl)ccc2OP(=O)(O)O)nc2ccc(Cl)cc12", "note": "[8e, Ammonium 2-(5'-chloro-2'-phosphoryloxyphenyl)-6-chloro-4-(3H)-quinazolinone]", "values": [
      {"measurement": "quantity of alkaline phosphatase clearly visible on the gel", "setting": "alkaline phosphatase; 1 mM substrate, 30 minutes incubation, handheld UV-lamp", "value": 1, "unit": "ng"},
      {"measurement": "quantity of alkaline phosphatase visibly detected on the gel", "setting": "alkaline phosphatase; 1 mM substrate, approximately 20 hours incubation, no signal enhancement", "value": 0.25, "unit": "ng"},
      {"measurement": "sensitivity relative to standard Coomassie Blue-staining methods", "setting": "alkaline phosphatase; enzyme detection on gel", "value": 4000, "unit": "times"},
      {"measurement": "staining of negative control lanes", "setting": "alkaline phosphatase; lanes loaded with 2-μg bovine serum albumin or 2-μg β-galactosidase", "value": "does not stain lanes"},
      {"measurement": "staining of cells incubated with SLE-positive sera", "setting": "HEp-2 cells", "value": "brightly fluorescent nuclei"},
      {"measurement": "staining of wells incubated with negative sera", "setting": "HEp-2 cells", "value": "No signal is detected"}
    ]}
  ]
}
